IC50 data for three compounds are collected here from US9169237B1, “Antiprotozoal amidine compounds” (Medi Synergics, LLC, priority 2014, dated 2015).

Structures are written as SMILES.

The experiment deals with T. brucei brucei. In words: T. brucei brucei growth inhibition assay. The following applies: Trypanosoma brucei; bloodstream forms, T. brucei brucei clone 427-221a; 40 hours at 37° C.; 0.5% DMSO; ATP-bioluminescence; read-out: IC50 (μM) (95% Confidence Intervals). In kind it is cell-based, Trypanosoma brucei brucei clone 427-221a (bloodstream forms). How it is done: The growth inhibition assay for T. brucei brucei was conducted as described previously by Z. B. Mackey et al (Kenny K. H. Ang, Joseline Ratnam, Jiri Gut, Jennifer Legac, Elizabeth Hansell, Zachary B. Mackey, Katarzyna M. Skrzypczynska, Anjan Debnath, Juan C. Engel, Philip J. Rosenthal, James H. McKerrow, Michelle R. Arkin, Adam R. Renslo (2011) “Mining a Cathepsin Inhibitor Library for New Antiparasitic Drug Leads”, PLoS Neglected Tropical Diseases, 5(5):e1023). Bloodstream forms of the monomorphic T. brucei brucei clone 427-221a were grown in complete HMI-9 medium containing 10% FBS, 10% Serum Plus medium (Sigma Inc., St. Louis, Mo., USA), 50 U/mL penicillin and […] streptomycin (Invitrogen) at 37° C. under a humidified atmosphere and 5% CO2. Inhibitor stocks were prepared in 100% DMSO and screened at […] for percent inhibition values or serially diluted from […] in 10% DMSO for […] determinations. […] of each dilution was added to […] of diluted parasites ([…]) in sterile Greiner 96-well flat white opaque culture plates such that the final DMSO concentration was 0.5%. The 0% inhibition control wells contained 0.5% DMSO while 100% inhibition control wells contained […] thimerosal (Sigma). After compound addition, plates were incubated for 40 hours at 37° C. At the end of the incubation period, […] of CellTiter-GIo™ reagent (Promega Inc., Madison, Wis., USA) was added to each well and plates were placed on an orbital shaker at room temperature for 2 min to induce lysis. After an additional 10 min of incubation without shaking to stabilize the signal, the ATP-bioluminescence of each well was determined using an Analyst HT plate reader (Molecular Devices, Sunnyvale, Calif., USA). Raw values were converted to log 10 and percentage inhibition calculated relative to the controls. IC50 curve fittings were performed with Prism 4 software as above. Pentamidine was used as a comparator in the assay.
One may read the IC50 as the concentration that gives 50% inhibition. `CN(CCCC1(c2ccc(F)cc2)OCc2cc(C#N)ccc21)C1=NCCCC1` (stereo not drawn) [Example 3, 1-(4-fluorophenyl)-1-{3-[methyl(3,4,5,6-tetrahydropyridin-2-yl)amino]propyl}-1,3-dihydro-2-benzo-furan-5-carbonitrile]: the IC50 worked out at 20 µM. On to `CC(=N)N(C)CCCC1(c2ccc(F)cc2)OCc2cc(C#N)ccc21` (stereo not drawn) [Example 1, N-{3-[5-cyano-1-(4-fluorophenyl)-1,3-dihydro-2-benzofuran-1-yl]propyl}-N-methyl-ethanimidamide], for which the half-inhibitory concentration (IC50) is 10 µM.

Take `CN(CCCC1(c2ccc(F)cc2)OCc2cc(C#N)ccc21)C(=N)c1ccccc1` (stereo not drawn) [Example 2, N-{3-[5-cyano-1-(4-fluorophenyl)-1,3-dihydro-2-benzofuran-1-yl]propyl}-N-methyl-phenylmethanimidamide]: the IC50 turned out to be 1.1 µM.
